pIC50: −log10 of the molar value. Calls of active or inactive are those of the source. The calls are words filed in the database; no cut-off is given here.
Legend:
[1] = system: MDA-MB-436; experiment: Antiproliferative activity against BRCA1-deficient human MDA-MB-436 cells assessed as inhibition of cell proliferation incubated for 5 days by MTT assay; type: functional, cell-based; settings: MDA-MB-436, 120 h
[2] = system: MCF-10A; experiment: (§1) Antiproliferative activity against human MCF-10A cells assessed as inhibition of cell proliferation incubated for 5 days by MTT assay; type: toxicity, cell-based; settings: mcf-10a
[3] = molecular target: T1, Poly [ADP-ribose] polymerase 1 (Homo sapiens, UniProt P09874); settings: dose 10.0 nM, time 90.0 min
T1 sequence (P09874 whole entry): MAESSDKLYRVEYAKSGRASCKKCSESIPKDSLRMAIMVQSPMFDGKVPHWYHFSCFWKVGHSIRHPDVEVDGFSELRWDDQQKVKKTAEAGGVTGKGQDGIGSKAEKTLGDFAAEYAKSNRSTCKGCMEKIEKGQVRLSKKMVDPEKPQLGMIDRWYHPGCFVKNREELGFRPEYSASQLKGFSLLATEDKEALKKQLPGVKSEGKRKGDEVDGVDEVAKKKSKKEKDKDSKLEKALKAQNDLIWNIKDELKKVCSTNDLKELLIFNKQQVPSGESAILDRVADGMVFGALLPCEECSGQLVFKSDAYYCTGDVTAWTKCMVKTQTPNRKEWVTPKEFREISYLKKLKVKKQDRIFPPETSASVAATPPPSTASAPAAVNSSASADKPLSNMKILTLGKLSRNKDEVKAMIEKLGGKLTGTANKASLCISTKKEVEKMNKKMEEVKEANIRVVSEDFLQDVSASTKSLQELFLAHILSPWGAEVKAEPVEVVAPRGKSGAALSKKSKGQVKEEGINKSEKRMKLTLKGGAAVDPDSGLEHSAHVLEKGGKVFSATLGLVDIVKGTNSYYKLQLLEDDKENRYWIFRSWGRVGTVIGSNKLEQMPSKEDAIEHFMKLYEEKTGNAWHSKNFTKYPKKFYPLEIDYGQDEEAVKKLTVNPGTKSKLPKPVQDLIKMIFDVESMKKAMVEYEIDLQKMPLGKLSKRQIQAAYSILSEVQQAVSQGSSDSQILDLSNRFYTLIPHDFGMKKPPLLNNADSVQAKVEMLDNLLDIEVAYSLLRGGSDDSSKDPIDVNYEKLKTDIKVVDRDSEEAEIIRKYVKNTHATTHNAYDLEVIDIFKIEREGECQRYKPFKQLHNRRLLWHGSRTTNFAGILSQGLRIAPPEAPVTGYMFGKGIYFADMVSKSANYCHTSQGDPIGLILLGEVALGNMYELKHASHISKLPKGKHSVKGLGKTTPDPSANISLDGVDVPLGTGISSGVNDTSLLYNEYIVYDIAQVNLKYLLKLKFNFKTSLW

[4] = system: SK-OV-3; experiment: Antiproliferative activity against BRCA-proficient human SK-OV-3 cells assessed as inhibition of cell proliferation incubated for 5 days by MTT assay; type: functional, cell-based; settings: SK-OV-3, 120 h
[5] = system: HCC1937; experiment: Antiproliferative activity against BRCA1-deficient human HCC1937 cells assessed as inhibition of cell proliferation incubated for 5 days by MTT assay; type: functional, cell-based; settings: HCC1937, 120 h
[6] = molecular target: T2, DNA polymerase theta (Homo sapiens, UniProt O75417); experiment: Inhibition of DNA polymerase theta (unknown origin) ATPase activity incubated for 60 mins in presence of ATP by ADP-glo kinase assay
T2 sequence (O75417 whole entry): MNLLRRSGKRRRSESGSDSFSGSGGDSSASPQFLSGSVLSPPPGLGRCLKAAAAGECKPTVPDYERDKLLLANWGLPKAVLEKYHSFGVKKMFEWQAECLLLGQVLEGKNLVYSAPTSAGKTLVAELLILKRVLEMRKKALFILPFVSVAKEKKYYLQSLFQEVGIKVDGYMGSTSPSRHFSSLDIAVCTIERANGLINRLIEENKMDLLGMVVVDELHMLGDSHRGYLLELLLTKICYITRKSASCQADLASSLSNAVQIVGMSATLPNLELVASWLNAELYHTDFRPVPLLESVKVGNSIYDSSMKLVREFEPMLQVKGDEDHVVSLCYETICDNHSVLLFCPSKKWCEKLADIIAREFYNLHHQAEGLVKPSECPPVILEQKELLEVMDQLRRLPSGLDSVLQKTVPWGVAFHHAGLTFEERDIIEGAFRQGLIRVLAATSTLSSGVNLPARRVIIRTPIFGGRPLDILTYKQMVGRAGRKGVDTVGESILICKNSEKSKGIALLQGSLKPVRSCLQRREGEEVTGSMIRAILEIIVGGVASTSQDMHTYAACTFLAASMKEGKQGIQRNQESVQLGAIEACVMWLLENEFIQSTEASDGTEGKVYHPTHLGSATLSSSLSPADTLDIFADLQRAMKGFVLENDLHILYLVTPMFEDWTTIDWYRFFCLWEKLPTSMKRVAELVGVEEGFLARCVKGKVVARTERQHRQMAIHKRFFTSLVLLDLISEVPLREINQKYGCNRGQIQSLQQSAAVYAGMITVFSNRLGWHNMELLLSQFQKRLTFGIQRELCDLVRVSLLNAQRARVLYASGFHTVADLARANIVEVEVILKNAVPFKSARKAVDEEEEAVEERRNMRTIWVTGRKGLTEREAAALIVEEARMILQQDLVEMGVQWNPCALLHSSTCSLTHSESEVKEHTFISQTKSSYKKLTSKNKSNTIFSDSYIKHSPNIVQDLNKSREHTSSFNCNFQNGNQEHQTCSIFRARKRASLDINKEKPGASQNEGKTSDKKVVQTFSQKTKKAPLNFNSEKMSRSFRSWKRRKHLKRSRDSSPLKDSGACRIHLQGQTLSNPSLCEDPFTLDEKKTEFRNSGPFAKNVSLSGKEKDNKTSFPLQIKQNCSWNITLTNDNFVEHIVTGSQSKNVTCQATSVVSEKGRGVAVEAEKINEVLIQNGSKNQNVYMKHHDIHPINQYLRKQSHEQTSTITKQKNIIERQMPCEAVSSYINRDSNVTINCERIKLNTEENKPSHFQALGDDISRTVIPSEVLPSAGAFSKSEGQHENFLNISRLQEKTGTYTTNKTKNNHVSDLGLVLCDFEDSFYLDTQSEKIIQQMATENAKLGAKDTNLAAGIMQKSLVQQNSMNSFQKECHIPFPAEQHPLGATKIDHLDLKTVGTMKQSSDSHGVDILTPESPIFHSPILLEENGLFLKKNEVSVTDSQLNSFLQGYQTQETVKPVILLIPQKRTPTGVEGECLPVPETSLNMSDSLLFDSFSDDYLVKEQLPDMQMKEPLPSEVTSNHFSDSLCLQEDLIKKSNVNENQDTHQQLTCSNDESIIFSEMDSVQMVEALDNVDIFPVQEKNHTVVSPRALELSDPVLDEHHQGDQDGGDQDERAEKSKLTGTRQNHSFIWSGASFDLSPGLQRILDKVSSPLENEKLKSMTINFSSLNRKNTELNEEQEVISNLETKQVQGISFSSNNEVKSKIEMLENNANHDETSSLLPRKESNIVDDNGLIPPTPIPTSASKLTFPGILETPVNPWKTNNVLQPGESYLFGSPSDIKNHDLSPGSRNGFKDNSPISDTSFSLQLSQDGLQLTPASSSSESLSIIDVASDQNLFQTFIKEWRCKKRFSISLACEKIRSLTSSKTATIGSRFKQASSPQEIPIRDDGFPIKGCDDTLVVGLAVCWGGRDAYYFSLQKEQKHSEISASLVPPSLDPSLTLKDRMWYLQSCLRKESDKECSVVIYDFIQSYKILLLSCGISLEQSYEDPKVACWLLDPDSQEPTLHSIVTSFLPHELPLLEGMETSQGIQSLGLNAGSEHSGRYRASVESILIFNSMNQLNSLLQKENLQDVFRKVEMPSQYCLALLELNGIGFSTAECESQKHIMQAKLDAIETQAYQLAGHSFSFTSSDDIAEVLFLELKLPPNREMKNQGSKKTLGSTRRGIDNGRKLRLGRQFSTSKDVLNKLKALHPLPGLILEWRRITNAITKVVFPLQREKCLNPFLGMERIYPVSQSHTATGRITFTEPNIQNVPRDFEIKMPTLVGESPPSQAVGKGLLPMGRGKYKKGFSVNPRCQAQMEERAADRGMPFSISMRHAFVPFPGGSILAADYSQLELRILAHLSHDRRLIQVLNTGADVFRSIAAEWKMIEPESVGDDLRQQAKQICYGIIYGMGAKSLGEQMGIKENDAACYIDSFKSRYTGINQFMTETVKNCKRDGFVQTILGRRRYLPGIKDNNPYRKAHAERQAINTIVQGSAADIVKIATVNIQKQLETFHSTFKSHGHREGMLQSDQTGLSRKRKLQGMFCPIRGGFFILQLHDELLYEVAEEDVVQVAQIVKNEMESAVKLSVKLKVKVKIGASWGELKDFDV

[7] = system: HCT-116; experiment: Antiproliferative activity against BRCA2-deficient human HCT-116 cells assessed as inhibition of cell proliferation incubated for 5 days by MTT assay; type: functional, cell-based; settings: HCT-116, 120 h
[8] = system: SW48; experiment: Antiproliferative activity against BRCA2-deficient human SW48 cells assessed as inhibition of cell proliferation incubated for 5 days by MTT assay; type: functional, cell-based; settings: SW48, 120 h
[9] = as §1; type: toxicity, cell-based; settings: human, MCF-10A cells
[10] = molecular target: T2, DNA polymerase theta; experiment: Inhibition of DNA polymerase theta (unknown origin) (1 to 899 residues) ATPase activity by NADH oxidation-coupled enzymatic assay
[11] = molecular target: T2, DNA polymerase theta; experiment: Inhibition of human DNA polymerase theta (67 to 970 residues) ATPase activity expressed in Sf9 insect cells incubated for 40 mins by ADP-glo assay
[12] = molecular target: T1, Poly [ADP-ribose] polymerase 1; experiment: Inhibition of human PARP1 incubated for 90 mins by colorimetric assay
[13] = system: MDA-MB-231; experiment: Induction of cell cycle arrest in human MDA-MB-231 cells assessed as accumulation of cells at G2/M phase at 10 uM incubated for 3 days by PI staining based flow cytometric analysis; type: functional; settings: time 3.0 day
[14] = system: MDA-MB-231; experiment: Induction of apoptosis in human MDA-MB-231 cells at 10 uM incubated for 3 days by Annexin V-APC/7-AAD based flow cytometry analysis; type: functional; settings: time 3 day
[15] = system: MDA-MB-231; experiment: Induction of DNA damage in human MDA-MB-231 cells assessed as increase in gammaH2AX foci at 2 to 10 uM incubated for 3 days in presence of olaparib by DAPI staining based confocal laser scanning microscopic analysis; type: functional, cell-based; settings: dose 2-10 µM, time 3.0 day
[16] = system: MDA-MB-231; experiment: Antitumor activity against human MDA-MB-231 cells xenografted in BALB/c mouse assessed as tumor growth inhibition at 40 mg/kg, ip administered for 21 days in presence of olaparib; type: functional; settings: MDA-MB-231, 504 h, time 21 day, read-out: TGI
[17] = system: MDA-MB-231; experiment: Antiproliferative activity against 53BP1-knockdown human MDA-MB-231 cells incubated for 24 hrs by MTT assay; type: functional, cell-based
[18] = system: MDA-MB-231; experiment: Induction of DNA damage in human MDA-MB-231 cells assessed as increase in tail intensity at 10 uM incubated for 3 days by florescence microscopic analysis; type: functional, cell-based; settings: time 3.0 day
[19] = system: MDA-MB-231; experiment: Induction of apoptosis in human MDA-MB-231 cells at 2 to 10 uM incubated for 3 days in presence of olaparib by Annexin V-APC/7-AAD based flow cytometry analysis; type: functional; settings: dose 2-10 µM, time 3 day
[20] = system: MDA-MB-436; experiment: Inhibition of colony formation in human MDA-MB-436 cells at 2 to 10 uM incubated for 9 days in presence of olaparib by crystal violet staining based analysis; type: functional, cell-based; settings: dose 2-10 µM, time 9.0 day
[21] = system: MDA-MB-231; experiment: Induction of DNA damage in human MDA-MB-231 cells assessed as increase in gammaH2AX foci at 10 uM incubated for 3 days by DAPI staining based confocal laser scanning microscopic analysis; type: functional, cell-based; settings: time 3.0 day
[22] = system: MDA-MB-231; experiment: Induction of cell cycle arrest in human MDA-MB-231 cells assessed as accumulation of cells at G2/M phase at 10 uM incubated for 3 days in presence of olaparib by PI staining based flow cytometric analysis; type: functional; settings: time 3.0 day
[23] = system: MDA-MB-436; experiment: Inhibition of colony formation in human MDA-MB-436 cells at 10 uM incubated for 9 days by crystal violet staining based analysis; type: functional, cell-based; settings: time 9.0 day
[24] = system: MDA-MB-231; experiment: Induction of DNA damage in human MDA-MB-231 cells assessed as increase in tail intensity at 2 to 10 uM incubated for 3 days in presence of olaparib by florescence microscopic analysis; type: functional, cell-based; settings: dose 2-10 µM, time 3.0 day
[25] = system: MDA-MB-231; experiment: Antitumor activity against human MDA-MB-231 cells xenografted in BALB/c mouse assessed as tumor growth inhibition at 40 mg/kg, ip administered for 21 days; type: functional; settings: MDA-MB-231, 504 h, time 21 day, read-out: TGI
[26] = system: MDA-MB-231; experiment: Induction of DNA damage in human MDA-MB-231 cells assessed as increase in tail intensity at 2 to 10 uM incubated for 3 days in presence of novobiocin by florescence microscopic analysis; type: functional, cell-based; settings: dose 2-10 µM, time 3.0 day
[27] = system: MDA-MB-231; experiment: Induction of DNA damage in human MDA-MB-231 cells assessed as increase in tail intensity at 2 uM incubated for 3 days by florescence microscopic analysis; type: functional, cell-based; settings: time 3.0 day
[28] = system: MDA-MB-231; experiment: Induction of apoptosis in human MDA-MB-231 cells at 2 to 10 uM incubated for 3 days in presence of novobiocin by Annexin V-APC/7-AAD based flow cytometry analysis; type: functional; settings: dose 2-10 µM, time 3 day
[29] = system: MDA-MB-231; experiment: Induction of cell cycle arrest in human MDA-MB-231 cells assessed as accumulation of cells at G2/M phase at 10 uM incubated for 3 days in presence of novobiocin by PI staining based flow cytometric analysis; type: functional; settings: time 3.0 day
[30] = system: MDA-MB-231; experiment: Induction of DNA damage in human MDA-MB-231 cells assessed as increase in gammaH2AX foci at 2 to 10 uM incubated for 3 days in presence of novobiocin by DAPI staining based confocal laser scanning microscopic analysis; type: functional, cell-based; settings: dose 2-10 µM, time 3.0 day
[31] = system: MDA-MB-436; experiment: Inhibition of colony formation in human MDA-MB-436 cells at 2 uM incubated for 9 days by crystal violet staining based analysis; type: functional, cell-based; settings: time 9.0 day
[32] = system: MDA-MB-231; experiment: Induction of DNA damage in human MDA-MB-231 cells assessed as increase in gammaH2AX foci at 2 uM incubated for 3 days by DAPI staining based confocal laser scanning microscopic analysis; type: functional, cell-based; settings: time 3.0 day
[33] = system: MDA-MB-231; experiment: Induction of apoptosis in human MDA-MB-231 cells at 2 uM incubated for 3 days by Annexin V-APC/7-AAD based flow cytometry analysis; type: functional; settings: time 3 day
[34] = system: MDA-MB-231; experiment: Induction of cell cycle arrest in human MDA-MB-231 cells assessed as accumulation of cells at G2/M phase at 2 uM incubated for 3 days by PI staining based flow cytometric analysis; type: functional; settings: time 3.0 day
[35] = system: MDA-MB-436; experiment: Inhibition of colony formation in human MDA-MB-436 cells at 2 to 10 uM incubated for 9 days in presence of novobiocin by crystal violet staining based analysis; type: functional, cell-based; settings: dose 2-10 µM, time 9.0 day

| pIC50 [1] | inhibition [3] | pIC50 [4] | pIC50 [5] | pIC50 [6] | pIC50 [7] | Structure (SMILES) | also measured |
| --- | --- | --- | --- | --- | --- | --- | --- |
|  | 82.8% |  |  | < 6.00 |  | COc1ccccc1-c1cnccc1C(=O)Nc1nnc(N2CC3(CCN(C(=O)c4cc(Cc5n[nH]c(=O)c6ccccc56)ccc4F)CC3)C2)s1 |  |
|  | 56.4% |  |  | 6.57 |  | COc1ccccc1-c1cnccc1C(=O)Nc1nnc(OC2CC3(C2)CN(C(=O)c2cc(Cc4n[nH]c(=O)c5ccccc45)ccc2F)C3)s1 |  |
| 5.04 | 70.1% | < 4.10 | 4.24 | 7.14 | 5.08 | COc1ccc(F)cc1-c1cc(C)ncc1C(=O)Nc1nnc(OC2CC3(CCN(C(=O)c4cc(Cc5n[nH]c(=O)c6ccccc56)ccc4F)CC3)C2)s1 | pIC50 [12]: 8.33; IC50 [2]: Non-Toxic |
|  | 47% |  |  | 6.78 |  | COc1ccccc1-c1cnccc1C(=O)Nc1nnc(OC2CC3(CCN(C(=O)c4cc(Cc5n[nH]c(=O)c6ccccc56)ccc4F)CC3)C2)s1 |  |
| 5.26 | 72.8% | < 4.10 | 4.18 | 7.10 | 5.14 | COc1cccc(F)c1-c1cc(C)ncc1C(=O)Nc1nnc(OC2CC3(CCN(C(=O)c4cc(Cc5n[nH]c(=O)c6ccccc56)ccc4F)CC3)C2)s1 | IC50 [2]: Non-Toxic |
| 4.98 | 66.9% | < 4.10 | 4.05 | 7.22 | 5.21 | COc1ccc(Cl)cc1-c1cc(C)ncc1C(=O)Nc1nnc(OC2CC3(CCN(C(=O)c4cc(Cc5n[nH]c(=O)c6ccccc56)ccc4F)CC3)C2)s1 | IC50 [2]: Non-Toxic |

Continued, compound first:

| Structure (SMILES) | pIC50 [1] | inhibition [3] | pIC50 [4] | pIC50 [5] | pIC50 [6] | pIC50 [7] | also measured |
| --- | --- | --- | --- | --- | --- | --- | --- |
| COc1ccccc1-c1cnccc1C(=O)Nc1nnc(OCC2CCN(C(=O)c3cc(Cc4n[nH]c(=O)c5ccccc45)ccc3F)CC2)s1 | 5.25 | 91.6% | 4.49 | 4.74 | 6.93 | 4.75 | IC50 [2]: Non-Toxic |
| COc1ccccc1-c1cnccc1C(=O)Nc1nnc(OCc2ccc(Cl)cc2)s1 | 4.23 |  | 4.04 | 4.21 | 8.62 | 4.33 | pIC50 ([8]; read-out: IC50): 4.87; IC50 at 5 days [9]: > 80 µM; pIC50 [10]: > 6.70; pIC50 [11]: 8.62 |
| COc1ccccc1-c1cnccc1C(=O)Nc1nnc(N2CCN(C(=O)c3cc(Cc4n[nH]c(=O)c5ccccc45)ccc3F)CC2)s1 |  | 91.4% |  |  | < 6.00 |  |  |
| O=C(Nc1nnc(OCc2ccc(Cl)cc2)s1)c1cc(Cc2n[nH]c(=O)c3ccccc23)ccc1F |  |  |  |  | < 6.00 |  |  |
| COc1cnc(C(F)F)cc1-c1cc(N2CCC(C)CC2=O)ncc1C(=O)Nc1nnc(C#CC2CC2)s1 (stereo not given) |  |  |  |  |  |  | pIC50 [10]: > 6.70 |
| COc1ccccc1-c1cnccc1C(=O)Nc1nnc(OCc2cc(Cc3n[nH]c(=O)c4ccccc34)ccc2F)s1 |  | 30.3% |  |  |  |  |  |
| COc1ccccc1-c1cnccc1C(=O)Nc1nnc(OCC2CN(C(=O)c3cc(Cc4n[nH]c(=O)c5ccccc45)ccc3F)C2)s1 |  | 36.9% |  |  | < 6.00 |  |  |
| CO[C@@H]1[C@@H](OC(N)=O)[C@@H](O)[C@H](Oc2ccc3c(O)c(NC(=O)c4ccc(O)c(CC=C(C)C)c4)c(=O)oc3c2C)OC1(C)C [NOVOBIOCIN] | 4.61 |  | < 4.10 | < 4.10 |  | < 4.10 | Activity [13]: Active; pIC50 ([8]; read-out: IC50): < 4.10; Activity [14]: 6.4%; Activity [15]: Active; IC50 at 5 days [9]: > 80 µM; inhibition in vivo at 40 mg/kg [16]: 62.5%; Activity [17]: Active; Activity [18]: Active; Activity [19]: 14.2%; inhibition [20]: Active; Activity [21]: Active; Activity [22]: Active; inhibition [23]: Active; Activity [24]: Active; inhibition in vivo at 40 mg/kg [25]: 45% |
| O=C(c1cc(Cc2n[nH]c(=O)c3ccccc23)ccc1F)N1CCN(C(=O)C2CC2)CC1 [OLAPARIB] | 4.88 |  | 4.57 | 4.42 |  |  | Activity [26]: Active; pIC50 [8]: 5.34; Activity [27]: Active; Activity [28]: 14.2%; IC50 at 5 days [9]: > 80 µM; Activity [17]: inactive; Activity [29]: Active; Activity [30]: Active; inhibition [31]: Active; Activity [32]: Active; Activity [33]: 8.9%; Activity [34]: Active; inhibition [35]: Active |
| COc1ccccc1-c1cnccc1C(=O)Nc1ncc(N2CCN(C(=O)c3cc(Cc4n[nH]c(=O)c5ccccc45)ccc3F)CC2)s1 |  | 93.1% |  |  | < 6.00 |  |  |
| COc1ccccc1-c1cnccc1C(=O)N1CCN(C(=O)c2cc(Cc3n[nH]c(=O)c4ccccc34)ccc2F)CC1 |  | 87.9% |  |  | < 6.00 |  |  |
